pIC50, pKi: −log10 of the molar value.
Columns and labels:
[1] = tested on: PC-3; experiment: Reduction of median primary tumor growth of PC3 cell line xenografted in nude mouse at 5 mg/kg, ip; assay type: functional, Homo sapiens; design: scale not given: the % may be the effect or the level left; details: route intraperitoneal
[2] = Anticoagulant activity in blood by aPTT assay; assay type: functional, Homo sapiens
[3] = tested on: PC-3; experiment: Reduction of dissemination into thorax in nude mouse xenografted with PC3 cell line at 5 mg/kg, ip; assay type: functional; design: scale not given: the % may be the effect or the level left; details: route intraperitoneal
[4] = target: T1, Prothrombin (Homo sapiens, UniProt P00734); experiment: Inhibition of thrombin
[5] = target: Coagulation factor X (Homo sapiens, UniProt P00742); experiment: Inhibition of f10a
Chain of Coagulation factor X (P00742 41-179 limits assumed): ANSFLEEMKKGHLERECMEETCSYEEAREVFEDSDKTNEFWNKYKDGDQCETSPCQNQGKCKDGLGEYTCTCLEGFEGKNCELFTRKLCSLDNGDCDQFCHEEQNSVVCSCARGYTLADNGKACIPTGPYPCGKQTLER
Chain of Coagulation factor X (P00742 235-488 limits assumed): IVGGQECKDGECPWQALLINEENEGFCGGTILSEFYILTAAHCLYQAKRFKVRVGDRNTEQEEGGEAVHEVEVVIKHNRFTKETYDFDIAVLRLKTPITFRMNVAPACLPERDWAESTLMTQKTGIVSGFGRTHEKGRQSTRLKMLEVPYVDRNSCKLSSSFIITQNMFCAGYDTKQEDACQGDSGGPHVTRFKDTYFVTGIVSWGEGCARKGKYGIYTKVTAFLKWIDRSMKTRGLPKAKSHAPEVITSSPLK

[6] = target: Coagulation factor VII/tissue factor (Homo sapiens) (UniProt P08709+P13726); details: Blood
Description: Anticoagulant activity in blood by PT assay

[7] = target: Urokinase-type plasminogen activator (Homo sapiens, UniProt P00749); experiment: Inhibition of uPA
[8] = target: T1, Prothrombin; details: Blood
[9] = target: Plasminogen (Homo sapiens, UniProt P00747); experiment: Inhibition of plasmin
Chain of Plasminogen (P00747 97-580 limits assumed): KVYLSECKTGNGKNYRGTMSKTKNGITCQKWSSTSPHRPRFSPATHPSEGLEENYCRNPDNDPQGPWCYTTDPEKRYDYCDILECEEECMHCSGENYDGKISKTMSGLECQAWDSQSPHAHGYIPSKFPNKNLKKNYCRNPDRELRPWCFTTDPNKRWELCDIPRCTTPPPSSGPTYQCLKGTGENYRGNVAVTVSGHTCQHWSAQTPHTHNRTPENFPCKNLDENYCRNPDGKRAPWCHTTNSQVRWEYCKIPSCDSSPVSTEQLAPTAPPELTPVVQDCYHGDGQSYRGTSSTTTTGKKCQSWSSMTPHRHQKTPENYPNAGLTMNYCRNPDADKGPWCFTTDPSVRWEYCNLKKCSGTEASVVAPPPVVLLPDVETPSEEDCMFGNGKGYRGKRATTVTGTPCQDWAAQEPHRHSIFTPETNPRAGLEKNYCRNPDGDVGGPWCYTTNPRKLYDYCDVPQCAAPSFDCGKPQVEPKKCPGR
Chain of Plasminogen (P00747 581-810 limits assumed): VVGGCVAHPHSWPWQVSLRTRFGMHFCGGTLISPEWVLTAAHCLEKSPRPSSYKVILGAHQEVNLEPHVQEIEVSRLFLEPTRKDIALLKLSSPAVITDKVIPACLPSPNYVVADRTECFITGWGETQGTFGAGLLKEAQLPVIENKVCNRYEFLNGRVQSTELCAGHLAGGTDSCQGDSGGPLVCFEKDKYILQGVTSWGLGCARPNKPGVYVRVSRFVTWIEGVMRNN

[10] = target: T2, Suppressor of tumorigenicity 14 protein (Homo sapiens, UniProt Q9Y5Y6)
T2 sequence (Q9Y5Y6 whole entry): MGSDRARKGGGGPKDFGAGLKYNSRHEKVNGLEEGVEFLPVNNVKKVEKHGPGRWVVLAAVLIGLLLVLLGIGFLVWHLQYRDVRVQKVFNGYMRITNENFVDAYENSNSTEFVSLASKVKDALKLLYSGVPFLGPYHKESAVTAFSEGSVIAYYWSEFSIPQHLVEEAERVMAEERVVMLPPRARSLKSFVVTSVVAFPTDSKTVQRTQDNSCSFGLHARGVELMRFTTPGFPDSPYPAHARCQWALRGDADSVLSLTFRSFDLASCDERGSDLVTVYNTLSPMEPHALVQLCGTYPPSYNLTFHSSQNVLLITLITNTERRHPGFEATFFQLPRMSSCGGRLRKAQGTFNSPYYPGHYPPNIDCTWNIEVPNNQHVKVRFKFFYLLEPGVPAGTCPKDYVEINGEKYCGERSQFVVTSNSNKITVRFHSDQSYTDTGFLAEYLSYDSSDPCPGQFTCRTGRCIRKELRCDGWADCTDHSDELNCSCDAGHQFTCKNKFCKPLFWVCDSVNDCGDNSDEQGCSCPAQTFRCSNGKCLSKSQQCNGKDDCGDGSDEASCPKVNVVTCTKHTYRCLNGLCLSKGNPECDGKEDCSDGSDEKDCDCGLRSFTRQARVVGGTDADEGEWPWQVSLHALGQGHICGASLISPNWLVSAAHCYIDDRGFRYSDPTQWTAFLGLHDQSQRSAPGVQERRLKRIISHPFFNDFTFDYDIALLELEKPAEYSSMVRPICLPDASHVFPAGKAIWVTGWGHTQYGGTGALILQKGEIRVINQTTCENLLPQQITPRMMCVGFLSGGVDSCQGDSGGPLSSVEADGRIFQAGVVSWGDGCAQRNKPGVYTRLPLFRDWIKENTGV

[11] = target: T2, Suppressor of tumorigenicity 14 protein; experiment: Reduction of matriptase-catalyzed pro-HGF to HGF processing; assay type: functional

Structure (SMILES)	Activity [1]	IC200 [2]	Activity [3]	pKi [4]	pKi [5]	IC200 [6]	pKi [7]	IC200 [8]	pKi [9]	pKi [10]	pIC50 [11]
N=C(N)NCCC1CCN(C(=O)[C@H](Cc2cccc(C(=N)N)c2)NS(=O)(=O)c2ccc3ccccc3c2)CC1	17%	2.7 µM	53%	6.96	4.57	3.8 µM	5.89	0.32 µM	4.70		
N=C(N)c1cccc(C[C@H](NS(=O)(=O)c2ccc(C3CCCCC3)cc2)C(=O)N2CCN(C(=N)N)CC2)c1				5.77	5.89		5.09		5.51	7.59	5.52
N=C(N)NCCC1CCN(C(=O)[C@H](Cc2cccc(C(=N)N)c2)NS(=O)(=O)c2ccc(C3CCCCC3)cc2)CC1				7.29	5.74		5.72		5.70	7.06	
CCC(C)(C)c1ccc(S(=O)(=O)N[C@@H](Cc2cccc(C(=N)N)c2)C(=O)N2CCN(C(=O)CCN=C(N)N)CC2)cc1				6.59	5.08		4.74		5.60	6.70	
CC(C)c1cc(C(C)C)c(S(=O)(=O)N[C@@H](Cc2cccc(C(=N)N)c2)C(=O)N2CCCN(C(=O)C3CCN(C(=N)N)CC3)CC2)c(C(C)C)c1				5.60	5.39		5.34		6.48	7.30	
N=C(N)NCCC(=O)Nc1cccc(S(=O)(=O)N[C@@H](Cc2cccc(C(=N)N)c2)C(=O)N2CCC(CCNC(=N)N)CC2)c1				5.40	5.70		5.92		5.74	8.38	
N=C(N)c1cccc(C[C@H](NS(=O)(=O)c2ccc(Cc3ccncc3)cc2)C(=O)N2CCC(CCN=C(N)N)CC2)c1				6.57	5.64		5.44		6.08	7.28	
N=C(N)c1cccc(C[C@H](NS(=O)(=O)c2ccc3c(c2)C(=O)c2ccccc2C3=O)C(=O)N2CCC(C(=O)NCCN)CC2)c1				6.38	5.40		5.11		5.51	7.68	
N=C(N)c1cccc(C[C@H](NS(=O)(=O)c2cccc(NC(=O)CCN)c2)C(=O)N2CCC(CCN)CC2)c1	40%	>10 µM	33%	4.57	4.68	> 10 µM	5.44	> 10 µM	5.62	8.18	
CC(C)c1cc(C(C)C)c(S(=O)(=O)N[C@@H](Cc2cccc(C(=N)N)c2)C(=O)N2CCC(C(=O)NCCN)CC2)c(C(C)C)c1				4.80	5.20		5.92		6.03	6.42	
N=C(N)NCCC1CCN(C(=O)[C@H](Cc2cccc(C(=N)N)c2)NS(=O)(=O)c2ccc(Oc3ccccc3)cc2)CC1				6.68	6.00		5.64		6.12	7.42	
CC(C)c1cc(C(C)C)c(S(=O)(=O)N[C@@H](Cc2cccc(C(=N)N)c2)C(=O)N2CCN(C(=O)CCN=C(N)N)CC2)c(C(C)C)c1				5.80	5.54		6.09		5.85	7.24	
N=C(N)c1cccc(C[C@H](NS(=O)(=O)c2cccc(NC(=O)CCN)c2)C(=O)N2CCC(CCN=C(N)N)CC2)c1				5.22	5.02		5.77		5.30	8.74	
N=C(N)NCCC1CCN(C(=O)[C@H](Cc2cccc(C(=N)N)c2)NS(=O)(=O)c2ccc(Oc3ccccc3)nc2)CC1		1.5 µM		7.00	5.66	1.6 µM	5.47	0.27 µM	5.85	7.89	
CC(C)c1cc(C(C)C)c(S(=O)(=O)NC(Cc2cccc(C(=N)N)c2)C(=O)N2CCN(C(=O)CN)CC2)c(C(C)C)c1 (racemic)				6.70	4.98		5.05		5.47	6.16	
N=C(N)c1cccc(C[C@H](NS(=O)(=O)c2cccc(NC(=O)CCN)c2)C(=O)N2CCC(CCCN=C(N)N)CC2)c1		>10 µM		5.40	4.89	> 10 µM	5.74	> 10 µM	5.55	8.82	
CC(C)c1cc(C(C)C)c(S(=O)(=O)N[C@@H](Cc2cccc(C(=N)N)c2)C(=O)N2CCN(C(=O)CCCN=C(N)N)CC2)c(C(C)C)c1				5.38	5.55		6.59		6.06	7.21	

Source: ChEMBL document CHEMBL1138903, “Secondary amides of sulfonylated 3-amidinophenylalanine. New potent and selective inhibitors of matriptase” (J Med Chem, 2006)
